# Source: the supplement of paper PMC10307832
# Experiments:
# Experiment in all cases: relative viability (nuclei count vs DMSO), 5 days (fraction); higher = more cells survive
# Erlotinib + Tozasertib = compound: C#Cc1cccc(Nc2ncnc3cc(OCCOC)c(OCCOC)cc23)c1 [Erlotinib] + Cc1cc(Nc2cc(N3CCN(C)CC3)nc(Sc3ccc(NC(=O)C4CC4)cc3)n2)n[nH]1 [Tozasertib] (partner 0.1 µM)
# How it was run: (§1)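 Lung cancer cell lines were seeded in 1536-well plates and dosed by pin tool the next day, with either a single drug or a fixed anchor-drug dose combined with five library-drug doses (not always all listed) spaced in √10 steps. Five days later, one step fixed the cells and stained their nuclei (final 0.05% Triton X-100, 1% formaldehyde, 1 ug/ml Hoechst), and nuclei were counted on 4× images. Relative viability is the nuclei count in treated wells divided by the count in vehicle wells, and each value is the median of duplicate plates.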
# AT9283 + Olaparib = compound: O=C(Nc1c[nH]nc1-c1nc2ccc(CN3CCOCC3)cc2[nH]1)NC1CC1 [AT9283] + O=C(c1cc(Cc2n[nH]c(=O)c3ccccc23)ccc1F)N1CCN(C(=O)C2CC2)CC1 [Olaparib] (partner 8 µM)
# How it was run: as §1
# Erlotinib + Palbociclib = compound: C#Cc1cccc(Nc2ncnc3cc(OCCOC)c(OCCOC)cc23)c1 [Erlotinib] + CC(=O)c1c(C)c2cnc(Nc3ccc(N4CCNCC4)cn3)nc2n(C2CCCC2)c1=O [Palbociclib] (partner 0.5 µM)
# How it was run: as §1
# AT9283 + Crizotinib = compound: O=C(Nc1c[nH]nc1-c1nc2ccc(CN3CCOCC3)cc2[nH]1)NC1CC1 [AT9283] + C[C@@H](Oc1cc(-c2cnn(C3CCNCC3)c2)cnc1N)c1c(Cl)ccc(F)c1Cl [Crizotinib] (partner 1 µM)
# How it was run: as §1
# AT9283 + Phenformin = compound: O=C(Nc1c[nH]nc1-c1nc2ccc(CN3CCOCC3)cc2[nH]1)NC1CC1 [AT9283] + N=C(N)NC(=N)NCCc1ccccc1 [Phenformin] (partner 250 µM)
# How it was run: as §1
Cell Line,relative viability (Erlotinib + Tozasertib; first compound 0.02 µM),relative viability (Erlotinib + Tozasertib; first compound 0.2 µM),relative viability (Erlotinib + Tozasertib; first compound 0.6325 µM),relative viability (Erlotinib + Tozasertib; first compound 2 µM),relative viability (AT9283 + Olaparib; first compound 0.003 µM),relative viability (AT9283 + Olaparib; first compound 0.03 µM),relative viability (AT9283 + Olaparib; first compound 0.09487 µM),relative viability (AT9283 + Olaparib; first compound 0.3 µM),relative viability (Erlotinib + Palbociclib; first compound 0.02 µM),relative viability (Erlotinib + Palbociclib; first compound 0.2 µM),relative viability (Erlotinib + Palbociclib; first compound 0.6325 µM),relative viability (Erlotinib + Palbociclib; first compound 2 µM),relative viability (AT9283 + Crizotinib; first compound 0.003 µM),relative viability (AT9283 + Crizotinib; first compound 0.03 µM),relative viability (AT9283 + Crizotinib; first compound 0.09487 µM),relative viability (AT9283 + Crizotinib; first compound 0.3 µM),relative viability (AT9283 + Phenformin; first compound 0.003 µM),relative viability (AT9283 + Phenformin; first compound 0.03 µM),relative viability (AT9283 + Phenformin; first compound 0.09487 µM),relative viability (AT9283 + Phenformin; first compound 0.3 µM)
NCI-H2347,0.58,0.49,0.52,0.535,0.595,0.615,0.477,0.413,0.432,0.415,0.429,0.468,0.717,0.78,0.446,0.363,0.413,0.464,0.347,0.363
NCI-H3122,0.489,0.444,0.44,0.297,0.561,0.571,0.351,0.241,0.195,0.215,0.159,0.195,0.291,0.259,0.216,0.214,0.359,0.334,0.203,0.138
HARA,0.0745,0.0897,0.0791,0.0606,0.756,0.278,0.205,0.179,0.233,0.224,0.241,0.188,1.1,0.4,0.105,0.13,0.499,0.261,0.208,0.0751
HCC-78,0.407,0.289,0.385,0.402,0.909,0.599,0.273,0.249,0.482,0.432,0.458,0.459,0.328,0.272,0.213,0.189,0.611,0.511,0.333,0.26
HCC-366,0.0918,0.0854,0.0664,0.039,0.362,0.262,0.113,0.0721,0.389,0.358,0.544,0.312,0.547,0.179,0.105,0.0338,0.609,0.657,0.0853,0.0845
PC-14,0.435,0.148,0.159,0.103,0.264,0.151,0.074,0.0669,0.173,0.0873,0.0953,0.0635,0.959,0.731,0.559,0.159,0.51,0.468,0.197,0.109
LK-2,0.196,0.17,0.157,0.158,0.742,0.312,0.113,0.103,0.579,0.589,0.712,0.743,0.255,0.218,0.241,0.251,0.516,0.156,0.136,0.175
NCI-H358,0.0843,0.111,0.0963,0.0822,0.513,0.202,0.091,0.105,0.132,0.146,0.109,0.108,0.391,0.175,0.156,0.145,0.309,0.1,0.0619,0.0785
